Consider 9 substances from article PMC4210869, “Functional Phylogenetics Reveals Contributions of Pleiotropic Peptide Action to Ligand-Receptor Coevolution” (Scientific Reports, 2014).

Like-named read-outs stand apart in the source and are kept apart here. Where no end group is shown, it is not given here.

Holding throughout (assay type): cell-based
One assay concerns the target T1, TcPKr-C (Tribolium castaneum, UniProt A0ACM8QKC4).
T1 sequence (A0ACM8QKC4 1-483): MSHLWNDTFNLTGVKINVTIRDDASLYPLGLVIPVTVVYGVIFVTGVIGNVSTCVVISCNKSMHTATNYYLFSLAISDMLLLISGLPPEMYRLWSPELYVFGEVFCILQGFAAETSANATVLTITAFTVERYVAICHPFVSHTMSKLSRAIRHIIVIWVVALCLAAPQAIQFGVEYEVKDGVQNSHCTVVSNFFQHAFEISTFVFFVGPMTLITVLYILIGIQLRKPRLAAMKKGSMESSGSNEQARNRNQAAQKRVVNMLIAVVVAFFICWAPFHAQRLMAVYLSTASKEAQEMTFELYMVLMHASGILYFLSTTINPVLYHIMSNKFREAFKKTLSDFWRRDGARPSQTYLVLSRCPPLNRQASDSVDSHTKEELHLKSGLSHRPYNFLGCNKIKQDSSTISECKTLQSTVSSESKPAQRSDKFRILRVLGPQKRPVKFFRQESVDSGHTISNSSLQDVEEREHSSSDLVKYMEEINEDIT
Nature of the assay: Aequorin luminescence (calcium mobilization) assay, CHO cells transiently expressing TcPKr-C. The following applies: for Receptor activation, in words: text summary of dose-response data. The method, then: (§1) We characterized all PRXamide GPCRs through assays of 9 endogenous ligands. Ligand activities were quantified by detection of luminescence responses from CHO cells transiently transfected with GPCR (see Methods and Materials section for details). Dose-response curves were generated by logistic fitting of the log transformed ligand concentrations ranging from 0.01 nM to 10 μM (Fig. 3). All results, shown as averages, were replicated in three independent experiments (see Supplementary Data 1 for details).
(§2) T. castaneum was kept in a 30°C growth chamber under a 16 : 8 (L : D) photoperiod and fed on a diet of wheat flour and Brewer's yeast (10 : 1). Peptides from T. castaneum were synthesized by Genescript (Piscataway, NJ). For culture of Chinese Hamster Ovary cells (CHO), DMEM/F12 medium, fetal bovine serum (FBS), Fungizone and Penicillin/Streptomycin, and coelenterazine for aequorin functional assay were purchased from Gibco cell culture at Life Technologies^TM (Grand Island, NY). TransIT-LT1 Transfection Reagent (Mirus Bio LLC, Madison, WI) was used for transient transfections. […]
(§3) cDNAs for full GPCR ORFs were inserted into the expression vector pcDNA3.1(+) (Invitrogen) or pcDNA5/FRT (Invitrogen). Methods for expression in Chinese Hamster Ovary (CHO) cell supplemented with aequorin and G-α16 and the assays were performed as previously described. Briefly, cells were transfected using the TransIT-LT1 transfection reagent (Mirus Bio LLC). Thirty hours after the transfection, the cells were collected and preincubated with the coelenterazine (Invitrogen) prior to the functional assay. A serial dilution (10 folds) of the 9 endogenous ligands were applied to the cells. The luminescence caused by the intracellular calcium mobilization were measured in continuous 20 seconds in every half-second interval. […] Based on which, a dose response curve was generated for each receptor by logistic fitting in Origin 8.6 (OriginLab).

The target of another assay is T2, TcPKr-B (Tribolium castaneum, UniProt A0A0A7H8P0).
T2 sequence (A0A0A7H8P0 1-560): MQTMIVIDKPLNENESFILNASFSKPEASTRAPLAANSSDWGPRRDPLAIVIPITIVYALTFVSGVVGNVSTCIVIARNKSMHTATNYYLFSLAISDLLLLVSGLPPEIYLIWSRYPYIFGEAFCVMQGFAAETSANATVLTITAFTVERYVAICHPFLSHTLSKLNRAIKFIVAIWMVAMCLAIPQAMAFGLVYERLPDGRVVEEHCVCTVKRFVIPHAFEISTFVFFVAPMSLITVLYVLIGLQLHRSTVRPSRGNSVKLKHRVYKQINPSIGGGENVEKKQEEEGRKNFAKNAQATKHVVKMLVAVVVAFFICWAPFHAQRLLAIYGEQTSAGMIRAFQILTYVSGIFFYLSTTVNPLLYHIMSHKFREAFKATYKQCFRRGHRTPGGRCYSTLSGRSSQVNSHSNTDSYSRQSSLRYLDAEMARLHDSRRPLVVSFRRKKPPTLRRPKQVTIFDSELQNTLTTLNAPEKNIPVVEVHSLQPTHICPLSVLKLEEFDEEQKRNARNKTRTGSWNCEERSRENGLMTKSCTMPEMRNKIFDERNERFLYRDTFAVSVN
Nature of the assay: Aequorin luminescence (calcium mobilization) assay, CHO cells transiently expressing TcPKr-B. The method, then:
as §1, §2, §3
On the technique in general: Calcium assays in cells follow changes in intracellular calcium, usually with a dye or a luminescent sensor.

The target of another assay is T3, TcPKr-A (Tribolium castaneum, UniProt A0ACM8QKC5).
T3 sequence (A0ACM8QKC5 1-530): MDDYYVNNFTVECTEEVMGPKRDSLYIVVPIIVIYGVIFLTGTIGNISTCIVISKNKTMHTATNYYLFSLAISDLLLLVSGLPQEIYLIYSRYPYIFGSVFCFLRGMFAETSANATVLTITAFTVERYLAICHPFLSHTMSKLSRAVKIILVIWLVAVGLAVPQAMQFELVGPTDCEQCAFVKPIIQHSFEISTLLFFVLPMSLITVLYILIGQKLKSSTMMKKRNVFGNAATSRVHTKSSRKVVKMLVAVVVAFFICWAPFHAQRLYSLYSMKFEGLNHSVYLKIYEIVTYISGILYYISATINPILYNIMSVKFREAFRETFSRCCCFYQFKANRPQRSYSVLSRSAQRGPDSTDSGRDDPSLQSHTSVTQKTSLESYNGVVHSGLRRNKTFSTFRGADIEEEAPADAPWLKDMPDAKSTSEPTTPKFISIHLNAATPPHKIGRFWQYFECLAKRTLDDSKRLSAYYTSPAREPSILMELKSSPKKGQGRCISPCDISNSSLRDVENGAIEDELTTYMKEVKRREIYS
Nature of the assay: Aequorin luminescence (calcium mobilization) assay, CHO cells transiently expressing TcPKr-A. The method, then:
as §1, §2, §3

The target of a further assay is T4, TcCAPAr (Tribolium castaneum, UniProt A0A0A7H7W3).
T4 sequence (A0A0A7H7W3 1-418): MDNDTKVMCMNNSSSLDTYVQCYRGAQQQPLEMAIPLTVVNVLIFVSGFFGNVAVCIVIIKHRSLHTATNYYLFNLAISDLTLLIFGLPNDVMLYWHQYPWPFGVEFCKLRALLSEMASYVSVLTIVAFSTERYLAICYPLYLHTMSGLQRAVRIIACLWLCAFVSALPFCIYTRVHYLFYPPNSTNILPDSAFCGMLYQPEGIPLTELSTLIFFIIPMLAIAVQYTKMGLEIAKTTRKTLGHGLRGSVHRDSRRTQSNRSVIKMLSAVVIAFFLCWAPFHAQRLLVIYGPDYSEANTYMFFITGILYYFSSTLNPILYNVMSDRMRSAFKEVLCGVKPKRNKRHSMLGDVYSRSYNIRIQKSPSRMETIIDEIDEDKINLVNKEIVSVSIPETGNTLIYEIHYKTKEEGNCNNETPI
Nature of the assay: Aequorin luminescence (calcium mobilization) assay, CHO cells transiently expressing TcCAPAr. The method, then:
as §1, §2, §3

Setting [1] is: EC50 (bound given in μM), Fig. 3, above highest tested concentration 10 μM.
The mark [2] stands for this setting: Supplementary data 1, fitted value incl. extrapolations beyond 10 μM, unit inferred, nM by Fig. 3, read-out: EC50s.
Setting [3] is: EC50 [nM], Fig. 3, CHO cells with aequorin and G-α16, logistic fit, ligand 0.01 nM to 10 μM, average of three independent experiments.

Take FFMKASKSVPRI-NH2 [ETH-2]: the EC50 on TcPKr-C (setting [1]) was over 10 µM; at TcPKr-C (setting [2]), 502 µM; on TcPKr-B (setting [1]) it was over 10 µM; on TcPKr-B (setting [2]), 21.8 µM; on TcPKr-A (setting [2]), 6300 nM; at TcCAPAr (setting [2]) it was 88.8 nM.

As for “TPHESSVPNERNDDSKETYFWFGPRL-NH2 [PK1/DH-2]”, the EC50 at TcPKr-C (setting [2]) is 0.576 µM; on TcPKr-B (setting [2]), 0.0658 µM; on TcPKr-A (setting [2]), 92.6 nM; at TcCAPAr (setting [2]) it was 1070 nM. Moreover, on TcPKr-C, the “Receptor activation, in words” value is “activated by high concentrations”.

In the case of SPPFAPRL-NH2 [PK2/PBAN-2], the EC50 at TcPKr-C (setting [2]) is 0.013 µM; on TcPKr-B (setting [2]), 0.0032 µM; at TcPKr-A (setting [2]) it was 17.5 nM; at TcCAPAr (setting [3]), 1070 nM; on TcCAPAr (setting [2]) it was 6970 nM.

For HVVNFTPRL-NH2 [PK2/PBAN-1], the EC50 at TcPKr-C (setting [2]) is 0.0014 µM; at TcPKr-B (setting [2]) it was 0.0119 µM; on TcPKr-A (setting [2]), 21 nM; on TcCAPAr (setting [1]), over 10000 nM; at TcCAPAr (setting [2]), 16100 nM.

PGANSGGMWFGPRL-NH2 [PK1/DH-1]: the EC50 at TcPKr-C (setting [1]) was over 10 µM; on TcPKr-B (setting [2]), 0.161 µM; on TcPKr-A (setting [2]), 6.2 nM; on TcCAPAr (setting [3]), 6970 nM; on TcCAPAr (setting [2]) it was 1070 nM. At TcPKr-C, the “Receptor activation, in words” value is listed as “not”.

On to NKLASVYALTPSLRV-NH2 [CAPA-1], for which the EC50 at TcPKr-C (setting [1]) was over 10 µM; at TcPKr-B (setting [1]), over 10 µM; on TcPKr-B (setting [2]), 338 µM; at TcPKr-A (setting [1]), over 10000 nM; at TcPKr-A (setting [2]) it was 30700 nM; on TcCAPAr, 3.7 nM.

As to ENYVLKAAKNVPRI-NH2 [ETH-1], the EC50 on TcPKr-C (setting [1]) is over 10 µM; at TcPKr-B (setting [1]), over 10 µM; on TcPKr-B (setting [2]), 120 µM; on TcPKr-A (setting [2]) it was 9840 nM; at TcCAPAr (setting [2]) it was 150 nM.

Take HSSPFSPRL-NH2 [PK2/PBAN-3]: the EC50 at TcPKr-C (setting [2]) is 0.001 µM; at TcPKr-B (setting [2]), 0.0287 µM; on TcPKr-A (setting [2]) it was 7.7 nM; on TcCAPAr (setting [1]), over 10000 nM; at TcCAPAr (setting [2]), 36600 nM.

For RIGKMVSFPRI-NH2 [CAPA-2], the EC50 was over 10 µM on TcPKr-C (setting [1]); over 10 µM at TcPKr-B (setting [1]); 62.5 µM on TcPKr-B (setting [2]); over 10000 nM at TcPKr-A (setting [1]); 12800 nM at TcPKr-A (setting [2]); 5.8 nM at TcCAPAr (setting [2]).
